# According to patent US10058550B2, “Methods of treating heart failure” (priority 2015, dated 2018):
# Molecular target: human APJ receptor (Homo sapiens (Human), UniProt P35414)
# Test: biochemical
# Assay type: biochemical
# Settings: read-out: Activity hAPJ SPA EC50 IP
# Method in brief: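 Membranes from CHO cells stably expressing cloned human APJ were incubated with WGA SPA beads in 20 mM HEPES pH 7.5, 5 mM MgCl2, 0.1% BSA, 200 mM NaCl and 3 μM GDP. Reaction started with 0.2 nM [35S]GTPγS ± ligands, 90 min at RT. EC50 obtained by non-linear regression as mean of independent experiments.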
# Sequence of human APJ receptor (P35414 whole entry): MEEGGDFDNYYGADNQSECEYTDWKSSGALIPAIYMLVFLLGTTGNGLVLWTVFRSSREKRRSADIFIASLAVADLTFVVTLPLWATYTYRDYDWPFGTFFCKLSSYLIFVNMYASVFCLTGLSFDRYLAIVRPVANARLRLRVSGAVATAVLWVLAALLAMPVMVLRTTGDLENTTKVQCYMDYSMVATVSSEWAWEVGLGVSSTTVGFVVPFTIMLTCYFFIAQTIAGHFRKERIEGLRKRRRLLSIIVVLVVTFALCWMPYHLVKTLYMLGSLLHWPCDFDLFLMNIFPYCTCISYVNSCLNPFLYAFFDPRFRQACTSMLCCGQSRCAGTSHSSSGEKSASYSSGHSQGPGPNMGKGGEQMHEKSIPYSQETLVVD
row,Compound,EC50 [nM]
1,"COc1cccc(OC)c1-n1c(NS(=O)(=O)[C@@H](C)[C@@H](OC(C)C)c2ncc(C)cn2)nnc1-c1ccccn1 [Example 778.0, (1S,2S)-N-(4-(2,6-dimethoxyphenyl)-5-(2-pyridinyl)-4H-1,2,4-triazol-3-yl)-1-(1-methylethoxy)-1-(5-methyl-2-pyrimidinyl)-2-propanesulfonamide]",0.77
2,"COc1ncnc(OC)c1-n1c(NS(=O)(=O)[C@@H](C)[C@H](OC)c2cnc(C)cn2)nnc1-c1ccccn1 [Example 779.0, (1R,2S)-N-(4-(4,6-dimethoxy-5-pyrimidinyl)-5-(2-pyridinyl)-4H-1,2,4-triazol-3-yl)-1-methoxy-1-(5-methyl-2-pyrazinyl)-2-propanesulfonamide]",17
3,"COc1cccc(OC)c1-n1c(NS(=O)(=O)[C@@H](C)[C@H](OC)c2cnc(C)cn2)nnc1-c1ccccn1 [Example 780.0, (1R,2S)-N-(4-(2,6-dimethoxyphenyl)-5-(2-pyridinyl)-4H-1,2,4-triazol-3-yl)-1-methoxy-1-(5-methyl-2-pyrazinyl)-2-propanesulfonamide]",8.8
4,"Cc1cnc([C@@H](C)[C@H](C)S(=O)(=O)Nc2nnc(-c3cccc(C)n3)n2-c2c(F)cccc2F)nc1 [Example 783.0, (2S,3R)-N-(4-(2,6-difluorophenyl)-5-(6-methyl-2-pyridinyl)-4H-1,2,4-triazol-3-yl)-3-(5-methyl-2-pyrimidinyl)-2-butanesulfonamide]",4.2
5,"COc1cccc(-c2nnc(NS(=O)(=O)[C@@H](C)[C@H](C)c3ncc(C)cn3)n2-c2c(F)cccc2F)n1 [Example 784.0, (2S,3R)-N-(4-(2,6-difluorophenyl)-5-(6-methoxy-2-pyridinyl)-4H-1,2,4-triazol-3-yl)-3-(5-methyl-2-pyrimidinyl)-2-butanesulfonamide]",0.4
6,"Cc1cnc([C@@H](C)[C@H](C)S(=O)(=O)Nc2nnc(-c3ccccn3)n2-c2c(F)cccc2F)nc1 [Example 785.0, (2S,3R)-N-(4-(2,6-difluorophenyl)-5-(2-pyridinyl)-4H-1,2,4-triazol-3-yl)-3-(5-methyl-2-pyrimidinyl)-2-butanesulfonamide]",4.9
7,"COc1cccc(-c2nnc(NS(=O)(=O)[C@@H](C)[C@H](C)c3ncc(Cl)cn3)n2-c2c(F)cccc2F)n1 [Example 786.0, (2S,3R)-3-(5-chloro-2-pyrimidinyl)-N-(4-(2,6-difluorophenyl)-5-(6-methoxy-2-pyridinyl)-4H-1,2,4-triazol-3-yl)-2-butanesulfonamide]",0.16
8,"Cc1cccc(-c2nnc(NS(=O)(=O)[C@@H](C)[C@H](C)c3ncc(Cl)cn3)n2-c2c(F)cccc2F)n1 [Example 788.0, (2S,3R)-3-(5-chloro-2-pyrimidinyl)-N-(4-(2,6-difluorophenyl)-5-(6-methyl-2-pyridinyl)-4H-1,2,4-triazol-3-yl)-2-butanesulfonamide]",0.84
9,"COc1cccc(-c2nnc(NS(=O)(=O)[C@@H](C)[C@H](C)c3cnc(C)cn3)n2-c2c(F)cccc2F)n1 [Example 789.0, (2S,3R)-N-(4-(2,6-difluorophenyl)-5-(6-methoxy-2-pyridinyl)-4H-1,2,4-triazol-3-yl)-3-(5-methyl-2-pyrazinyl)-2-butanesulfonamide]",1.9
10,"Cc1cnc([C@@H](C)[C@H](C)S(=O)(=O)Nc2nnc(-c3cccc(C)n3)n2-c2c(F)cccc2F)cn1 [Example 790.0, (2S,3R)-N-(4-(2,6-difluorophenyl)-5-(6-methyl-2-pyridinyl)-4H-1,2,4-triazol-3-yl)-3-(5-methyl-2-pyrazinyl)-2-butanesulfonamide]",20
11,"CNc1cccc(-c2nnc(NS(=O)(=O)[C@@H](C)[C@H](C)c3ncc(C)cn3)n2-c2c(F)cccc2F)n1 [Example 791.0, (2S,3R)-N-(4-(2,6-difluorophenyl)-5-(6-(methylamino)-2-pyridinyl)-4H-1,2,4-triazol-3-yl)-3-(5-methyl-2-pyrimidinyl)-2-butanesulfonamide]",0.63
12,"COc1cccc(-c2nnc(NS(=O)(=O)[C@H](C)[C@@H](OC)c3ncc(C)cn3)n2-c2c(F)cccc2F)n1 [Example 792.0, (1S,2R)-N-(4-(2,6-difluorophenyl)-5-(6-methoxy-2-pyridinyl)-4H-1,2,4-triazol-3-yl)-1-methoxy-1-(5-methyl-2-pyrimidinyl)-2-propanesulfonamide]",51
13,"Cc1cnc([C@@H](C)[C@H](C)S(=O)(=O)Nc2nnc(-c3cccnc3)n2-c2c(F)cccc2F)nc1 [Example 793.0, (2S,3R)-N-(4-(2,6-difluorophenyl)-5-(3-pyridinyl)-4H-1,2,4-triazol-3-yl)-3-(5-methyl-2-pyrimidinyl)-2-butanesulfonamide]",15
14,"COc1cnc([C@@H](C)[C@H](C)S(=O)(=O)Nc2nnc(-c3cncc(C)c3)n2-c2c(F)cccc2F)cn1 [Example 794.0, (2S,3R)-N-(4-(2,6-difluorophenyl)-5-(5-methyl-3-pyridinyl)-4H-1,2,4-triazol-3-yl)-3-(5-methoxy-2-pyrazinyl)-2-butanesulfonamide]",6.6
15,"Cc1cncc(-c2nnc(NS(=O)(=O)[C@@H](C)[C@H](C)c3cnc(C)cn3)n2-c2c(F)cccc2F)c1 [Example 795.0, (2S,3R)-N-(4-(2,6-difluorophenyl)-5-(5-methyl-3-pyridinyl)-4H-1,2,4-triazol-3-yl)-3-(5-methyl-2-pyrazinyl)-2-butanesulfonamide]",30
16,"Cc1cncc(-c2nnc(NS(=O)(=O)[C@@H](C)[C@H](C)c3ncc(Cl)cn3)n2-c2c(F)cccc2F)c1 [Example 796.0, (2S,3R)-3-(5-chloro-2-pyrimidinyl)-N-(4-(2,6-difluorophenyl)-5-(5-methyl-3-pyridinyl)-4H-1,2,4-triazol-3-yl)-2-butanesulfonamide]",1.1
17,"COc1ncnc(OC)c1-n1c(NS(=O)(=O)[C@@H](C)[C@H](C)c2cnc(C)cn2)nnc1-c1cccnc1 [Example 806.0, (2S,3R)-N-(4-(4,6-dimethoxy-5-pyrimidinyl)-5-(3-pyridinyl)-4H-1,2,4-triazol-3-yl)-3-(5-methyl-2-pyrazinyl)-2-butanesulfonamide]",19
18,"C[C@H](c1ccc(Cl)cn1)[C@H](C)S(=O)(=O)Nc1nnc(-c2cccnc2)n1-c1c(O)nc[nH]c1=O [Example 810.0, (2S,3R)-3-(5-chloro-2-pyridinyl)-N-(4-(4-hydroxy-6-oxo-1,6-dihydro-5-pyrimidinyl)-5-(3-pyridinyl)-4H-1,2,4-triazol-3-yl)-2-butanesulfonamide]",770
19,"COc1ncnc(OC)c1-n1c(NS(=O)(=O)[C@@H](C)[C@@H](OC(C)C)c2ncc(C)cn2)nnc1-c1cncc(C)c1 [Example 829.0, (1S,2S)-N-(4-(4,6-dimethoxy-5-pyrimidinyl)-5-(5-methyl-3-pyridinyl)-4H-1,2,4-triazol-3-yl)-1-(1-methylethoxy)-1-(5-methyl-2-pyrimidinyl)-2-propanesulfonamide]",9.5
20,"COc1cccc(-c2nnc(NS(=O)(=O)[C@@H]3CCCN(c4ncc(Cl)cn4)C3)n2-c2c(OC)ncnc2OC)n1 [Example 831.0, (3R)-1-(5-chloro-2-pyrimidinyl)-N-(4-(4,6-dimethoxy-5-pyrimidinyl)-5-(6-methoxy-2-pyridinyl)-4H-1,2,4-triazol-3-yl)-3-piperidinesulfonamide, (3S)-1-(5-chloro-2-pyrimidinyl)-N-(4-(4,6-dimethoxy-5-pyrimidinyl)-5-(6-methoxy-2-pyridinyl)-4H-1,2,4-triazol-3-yl)-3-piperidinesulfonamide]",0.89
21,"COc1cccc(-c2nnc(NS(=O)(=O)CC3CC3)n2-c2c(OC)cccc2OC)n1 [Example 832.0, 1-cyclopropyl-N-(4-(2,6-dimethoxyphenyl)-5-(6-methoxy-2-pyridinyl)-4H-1,2,4-triazol-3-yl)methanesulfonamide]",110
22,"COc1cccc(-c2nnc(NS(=O)(=O)[C@@H](C)[C@H](C)c3ncc(Cl)cn3)n2C2CCOCC2)n1 [Example 835.0, (2S,3R)-3-(5-chloro-2-pyrimidinyl)-N-(5-(6-methoxy-2-pyridinyl)-4-(tetrahydro-2H-pyran-4-yl)-4H-1,2,4-triazol-3-yl)-2-butanesulfonamide]",13
23,"COc1cccc(-c2nnc(NS(=O)(=O)[C@@H](C)[C@H](OC)c3ncc(Cl)cn3)n2C2CCOCC2)n1 [Example 836.0, (1R,2S)-1-(5-chloro-2-pyrimidinyl)-1-methoxy-N-(5-(6-methoxy-2-pyridinyl)-4-(tetrahydro-2H-pyran-4-yl)-4H-1,2,4-triazol-3-yl)-2-propanesulfonamide]",2.9
24,"COc1cccc(-c2nnc(NS(=O)(=O)[C@@H](C)[C@@H](OC(C)C)c3ncc(C)cn3)n2C2CCOCC2)n1 [Example 837.0, (1S,2S)-N-(5-(6-methoxy-2-pyridinyl)-4-(tetrahydro-2H-pyran-4-yl)-4H-1,2,4-triazol-3-yl)-1-(1-methylethoxy)-1-(5-methyl-2-pyrimidinyl)-2-propanesulfonamide]",5.1
25,"COc1cccc(-c2nnc(NS(=O)(=O)[C@@H](C)[C@H](C)c3ccc(Cl)cn3)n2C2CCOCC2)n1 [Example 840.0, (2S,3R)-3-(5-chloro-2-pyridinyl)-N-(5-(6-methoxy-2-pyridinyl)-4-(tetrahydro-2H-pyran-4-yl)-4H-1,2,4-triazol-3-yl)-2-butanesulfonamide]",13
26,"COc1cccc(-c2nnc(NS(=O)(=O)[C@@H](C)[C@H](OC)c3ccc(Cl)cn3)n2C2CCOCC2)n1 [Example 841.0, (1R,2S)-1-(5-chloro-2-pyridinyl)-1-methoxy-N-(5-(6-methoxy-2-pyridinyl)-4-(tetrahydro-2H-pyran-4-yl)-4H-1,2,4-triazol-3-yl)-2-propanesulfonamide]",8.6
27,"COc1cnc([C@@H](C)[C@H](C)S(=O)(=O)Nc2nnc(-c3cccc(OC)n3)n2C2CCOCC2)nc1 [Example 842.0, (2S,3R)-N-(5-(6-methoxy-2-pyridinyl)-4-(tetrahydro-2H-pyran-4-yl)-4H-1,2,4-triazol-3-yl)-3-(5-methoxy-2-pyrimidinyl)-2-butanesulfonamide]",140
